Laboratory results: patent US20240075050A1, “Methods and Compositions for Treating Leucine Rich Repeat Kinase 2 (LRRK2)-Associated Disorder or Condition” (University of Connecticut, priority 2022, published 2024)

Experiments:
LRRK2 mRNA [1] = assay: LRRK2 mRNA levels by real-time PCR in SH-SY5Y cells; format: cell-based, human; details: 24 hours
Method: Real-Time PCR (qPCR). SH-SY5Y WT or AUF1-KO cells were treated with or without 2 mM AICAr for 24 hours, and total RNA was extracted from 3×10^5 cells of each treatment using TRIzol™ Reagent (Invitrogen) as per the manufacturer's introductions. Real-Time PCR (qPCR) assay was performed using GoTaq® 2-Step RT-PCR System (Promega) as per the manufacturer's introductions. Briefly, total cDNA was reversely transcribed from RNA pools (1.5 μg RNA in a 10 μl reaction mixture) using random primers. The qPCR reaction was run in CFX96 qPCR detection system (Bio-Rad) with 3 μl cDNA (1:20 dilution) in a 10 μl reaction mixture (Table 3), and set at 95° C. for 2 minutes followed by 40 amplification cycles of 95° C. for 15 seconds, 60° C. for 1 min with a melting curve, 95° C. for 15 seconds, 60° C. for 1 min, a ramp from 60° C. to 95° C. at an 1% rate, and 95° C. for 15 seconds. Melt curves were monitored to assess qPCR amplicons, and critical threshold (Ct) values were collected with an enclosed software. Relative gene expression was analyzed by normalization against Ct values of f-ACTIN (housekeeping gene) and then determined by comparison with expression levels of control sample using the relative expression index (2-ΔΔCt) method.

LRRK2 mRNA [2] = assay: LRRK2 mRNA stability assay in the presence of actinomycin D; format: cell-based, human; details: SH-SY5Y, 2 mM AICAr, 24-h period, 10 μg/ml actinomycin D
Method: FIGS. 3A-3J depict that AICAr regulates LRRK2 at mRNA level and through a specific region. FIGS. 3A and 3B depict the LRRK2 protein levels upon treatment of AICAr together with a proteasome inhibitor MG132 or an autophagy inhibitor chloroquine (CQ). […] LRRK2 expression levels were analyzed by Western blot. Images were quantified by ImageJ software. Data are mean±SEM, n=3 independent experiments. ***p<0.001, ****p<0.0001 by one-way ANOVA followed by a Tukey's post hoc test. FIG. 3C depicts the LRRK2 and GBA mRNA levels upon AICAr treatment. SH-SY5Y cells were treated with or without 2 mM AICAr for 24 hours. Total RNA was extracted. LRRK2 and GBA mRNA levels were analyzed by real-time PCR. Data are mean±SEM, n=4 independent experiments. **p<0.01 by Student's t tests. ns: not statistically significant. […] LRRK2 mRNA levels were analyzed by real-time PCR. […] LRRK2 expression levels were analyzed by Western blot. Images were quantified by ImageJ software. […] LRRK2 deletion mutant expression levels were analyzed by Western blot. FIGS. 3I and 3J depict that the specific region (2221-3927 bp) of the synthesized Flag-LRRK2 cDNA was replaced with the native sequence and the response of this chimeric LRRK2 cDNA expression to AICAr treatment was analyzed by Western blot. Images were quantified by ImageJ software. […]

## NC(=O)c1ncn([C@@H]2O[C@H](CO)[C@@H](O)[C@H]2O)c1N [AICAr, 5-aminoimidazole-4-carboxamide riboside]
LRRK2 mRNA [1]; SH-SY5Y AUF1-KO cells
  LRRK2 mRNA level in AUF1-KO cells: minimal effect
LRRK2 mRNA [1]; SH-SY5Y WT, 2 mM, real-time PCR
  LRRK2 mRNA levels: significantly decreased
LRRK2 mRNA [2]
  acceleration of LRRK2 mRNA decay: about twofold
